Blank lines part the entries; values can stand above or below the compound they belong to. Square brackets hold non-standard residues; d marks the D form. Peptide text beside a SMILES is read from it. 1Nal = N[C@@H](Cc1cccc2ccccc12)C(=O)O; Phg = N[C@H](C(=O)O)c1ccccc1
Assays:
[1] = biological target: T1, CGRP1 receptor (human neuroblastoma cell (SK-N-MC) membrane) (Homo sapiens, UniProt O60894+Q16602); assay: CGRP1 binding assay (125I-hαCGRP displacement)
T1 construct: human neuroblastoma cell (SK-N-MC) membrane suspension; purchased PerkinElmer; host or cells: SK-N-MC human neuroblastoma cell membranes (endogenous receptor)
T1 sequence (Q16602 23-461): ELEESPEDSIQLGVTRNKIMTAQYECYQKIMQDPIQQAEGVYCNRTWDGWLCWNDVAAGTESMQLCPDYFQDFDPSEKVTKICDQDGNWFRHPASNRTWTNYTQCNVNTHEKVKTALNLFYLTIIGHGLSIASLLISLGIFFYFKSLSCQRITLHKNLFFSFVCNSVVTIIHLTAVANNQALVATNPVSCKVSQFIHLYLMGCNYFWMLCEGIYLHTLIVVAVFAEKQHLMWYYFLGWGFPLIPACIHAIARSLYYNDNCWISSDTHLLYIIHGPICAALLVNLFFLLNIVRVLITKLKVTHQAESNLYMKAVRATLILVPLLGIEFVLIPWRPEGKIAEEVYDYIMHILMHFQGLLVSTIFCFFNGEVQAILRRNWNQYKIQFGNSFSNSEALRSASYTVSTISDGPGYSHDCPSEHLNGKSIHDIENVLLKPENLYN
T1 sequence (O60894 27-148): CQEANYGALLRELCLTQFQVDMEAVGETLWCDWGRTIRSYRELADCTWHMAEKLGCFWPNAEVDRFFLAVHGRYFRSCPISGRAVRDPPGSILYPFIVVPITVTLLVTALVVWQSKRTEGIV
Experimental: CGRP1 binding experiments. […] The plates were incubated at room temperature for 2 hour with shaking at 60 rpm, then the contents of each well were filtered over 0.5% polyethyleneimine (PEI)-treated (at least one hour) GF/C 96-well filter plates. The GF/C filter plates were washed 6 times with ice-cold 50 mM Tris, pH 7.5 and dried in an oven at 55 C for 1 hour. The bottoms of the GF/C plates were then sealed, and 40 μl Microscint™ 20 was added to each well, then the tops of the GF/C plates were sealed with TopSeal™-A, a press-on adhesive sealing film, and the GF/C plates were counted with TopCount NXT (Packard). The data were analyzed by using ActivityBase (IDBS) or Prizm (GraphPad) software.

CGRP1 receptor = biological target: T2, CGRP1 receptor (Homo sapiens, UniProt O60894+Q16602); assay: in vitro CGRP1 receptor mediated cAMP assay in SK-N-MC cells; assay type: cell-based
T2 construct: SK-N-MC cells express CRLR and RAMP1, which form CGRP1 receptor; endogenous in cells; host or cells: SK-N-MC human neuroblastoma cells
T2 sequence (Q16602 23-461): as the sequence (Q16602 23-461) above
T2 sequence (O60894 27-148): as the sequence (O60894 27-148) above
How it was run: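 Intracellular cAMP served as the Gs-coupled CGRP1 readout in endogenously expressing SK-N-MC cells. After a 15-minute room-temperature step in plasma-free medium, cell lysates (30 minutes, 37° C) went into a competitive ELISA with a cAMP-AP conjugate and anti-cAMP antibody for 1 hour, then a 30-minute substrate enhancer step before reading.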

[2] = in vitro stability in 10% human plasma, LC-MS/MS; assay type: in vitro ADME; details: room temperature
Experimental: (§1) Consequently, the stability of select, non-PEGylated analogs was evaluated in vitro in the presence of 10% rat or human plasma. Briefly, samples of each peptide were diluted to 100 ng/ml into PBS containing 10% of rat or human plasma. Each sample was then incubated at room temperature and analyzed by LC-MS/MS to quantitate the intact peptide remaining at select time points over 6 hours.

[3] = in vitro stability in 10% rat plasma, LC-MS/MS; assay type: in vitro ADME; details: room temperature; for % Remaining / remaining at 0.5 h, 100 ng/ml / remaining at 1 h, 100 ng/ml / remaining at 2 h, 100 ng/ml / remaining at 3 h, 100 ng/ml / remaining at 4 h, 100 ng/ml / remaining at 5 h, 100 ng/ml / remaining at 6 h, 100 ng/ml: 100 ng/ml; for % Remaining: 0 h
Experimental: as §1

[4] = read-out: time at which 50% depleted / detectable
[5] = read-out: time at which 50% remains (converted)
[6] = read-out: time at which 50% depleted

Compound: CC(C)C[C@H](NC(=O)CNC(=O)[C@H](C)NC(=O)[C@H](CC(C)C)NC(=O)[C@H](CCCNC(=N)N)NC(=O)[C@H](Cc1c[nH]cn1)NC(=O)[C@@H](NC(=O)[C@@H](NC(=O)[C@@H](N)Cc1cccc2ccccc12)C(C)C)[C@@H](C)O)C(=O)N[C@@H](CC(C)C)C(=O)N[C@@H](CO)C(=O)N[C@@H](CCCNC(=N)N)C(=O)N[C@@H](CO)C(=O)NCC(=O)NCC(=O)N[C@H](C(=O)N[C@H](C(=O)N[C@@H](CCCCN)C(=O)N[C@@H](CC(N)=O)C(=O)N[C@@H](CC(N)=O)C(=O)N[C@@H](Cc1ccccc1)C(=O)N[C@H](C(=O)N1CCC[C@H]1C(=O)N[C@H](C(=O)N[C@@H](CC(=O)O)C(=O)N[C@H](C(=O)NCC(=O)N1CCC[C@H]1C(=O)N[C@@H](Cc1ccccc1)C(=O)N[C@@H](C)C(=O)N[C@@H](Cc1ccccc1)C(N)=O)C(C)C)[C@@H](C)O)C(C)C)C(C)C)C(C)C [compound 701] (H-[1Nal]VTHRLAGLLSRSGGVVKNNFVPTDVGPFAF-NH2)
Ki ([1]; Table 3B): 0.14 nM

Compound: 686 (Ac-WVTHRLAGLLSRSGGVVK(20 kDa PEG)NNFVPTDVGPFAF-NH2) [compound 686]
Ki ([1]; Table 3B): 1.33 nM

Compound: CC(=O)N[C@@H](Cc1c[nH]c2ccccc12)C(=O)N[C@H](C(=O)N[C@H](C(=O)N[C@@H](Cc1cnc[nH]1)C(=O)N[C@@H](CCCCNC(=N)N)C(=O)N[C@@H](CC(C)C)C(=O)N[C@@H](C)C(=O)NCC(=O)N[C@@H](CC(C)C)C(=O)N[C@@H](CC(C)C)C(=O)N[C@@H](CO)C(=O)N[C@@H](CCCCNC(=N)N)C(=O)N[C@@H](CO)C(=O)NCC(=O)NCC(=O)N[C@H](C(=O)N[C@H](C(=O)N[C@@H](CCCNC(=N)N)C(=O)N[C@@H](CCCCN)C(=O)N[C@@H](CC(N)=O)C(=O)N[C@@H](Cc1ccccc1)C(=O)N[C@H](C(=O)N1CCC[C@H]1C(=O)N[C@H](C(=O)N[C@@H](CC(=O)O)C(=O)N[C@H](C(=O)NCC(=O)N1CCC[C@H]1C(=O)N[C@@H](Cc1ccccc1)C(=O)N[C@@H](C)C(=O)N[C@@H](Cc1ccccc1)C(N)=O)C(C)C)[C@@H](C)O)C(C)C)C(C)C)C(C)C)[C@@H](C)O)C(C)C [SEQ ID NO:25]
reduced antagonist activity relative to the single-substitution analogs (CGRP1 receptor; non-PEGylated double substitution at R11 and R18): about 5 fold
time at which about 10% of the starting concentration remains [2]: about 2 hours
half-life at 100 ng/ml [2, 4]: ~30 min
time at which about 10% of the starting concentration remains [3]: about 5 hours
half-life at 100 ng/ml [3, 5]: ~90 min

Compound: CC(C)[C@H](NC(=O)[C@@H](CC(=O)O)NC(=O)[C@@H](NC(=O)[C@@H]1CCCN1C(=O)[C@@H](NC(=O)[C@@H](N)Cc1ccccc1)C(C)C)[C@@H](C)O)C(=O)NCC(=O)N1CCC[C@H]1C(=O)N[C@@H](Cc1ccccc1)C(=O)N[C@@H](C)C(=O)N[C@@H](Cc1ccccc1)C(N)=O [compound 719]
Ki ([1]; Table 3B): > 1000 nM

Compound: CC(=O)N[C@@H](Cc1c[nH]c2ccccc12)C(=O)N[C@H](C(=O)N[C@H](C(=O)N[C@@H](Cc1cnc[nH]1)C(=O)N[C@@H](CCCN=C(N)N)C(=O)N[C@@H](CC(C)C)C(=O)N[C@@H](C)C(=O)NCC(=O)N[C@@H](CC(C)C)C(=O)N[C@@H](CC(C)C)C(=O)N[C@@H](CO)C(=O)N[C@@H](CCCN=C(N)N)C(=O)N[C@@H](CO)C(=O)NCC(=O)NCC(=O)N[C@H](C(=O)N[C@H](C(=O)N[C@@H](CCCN=C(N)N)C(=O)N[C@@H](CCCCN)C(=O)N[C@@H](CC(N)=O)C(=O)N[C@@H](Cc1ccccc1)C(=O)N[C@H](C(=O)N1CCC[C@H]1C(=O)N[C@H](C(=O)N[C@@H](CC(=O)O)C(=O)N[C@H](C(=O)NCC(=O)N1CCC[C@H]1C(=O)N[C@@H](Cc1ccccc1)C(=O)N[C@@H](C)C(=O)N[C@@H](Cc1ccccc1)C(N)=O)C(C)C)[C@@H](C)O)C(C)C)C(C)C)C(C)C)[C@@H](C)O)C(C)C [SEQ ID NO:7]
time at which about 10% of the starting concentration remains [2]: about 1 hours
half-life at 100 ng/ml [2, 4]: < 30 min
time at which about 10% of the starting concentration remains [3]: ~2.5 h
half-life at 100 ng/ml [3, 6]: ~45 min

Compound: Ac-WVTHRLAGLLSQSGGVVRKNFVPTDVGPFAF-NH2 [SEQ ID NO:37]
time at which about 10% of the starting concentration remains [2]: about 1 hours
half-life at 100 ng/ml [2, 4]: < 30 min
time at which about 10% of the starting concentration remains [3]: ~2.5 h
half-life at 100 ng/ml [3, 6]: ~45 min

Compound: CC(=O)N[C@@H](Cc1c[nH]c2ccccc12)C(=O)N[C@H](C(=O)N[C@H](C(=O)N[C@@H](Cc1cnc[nH]1)C(=O)N[C@@H](CCCN=C(N)N)C(=O)N[C@@H](CC(C)C)C(=O)N[C@@H](C)C(=O)NCC(=O)N[C@@H](CC(C)C)C(=O)N[C@@H](CC(C)C)C(=O)N[C@@H](CO)C(=O)N[C@@H](CCCN=C(N)N)C(=O)N[C@@H](CO)C(=O)NCC(=O)NCC(=O)N[C@H](C(=O)N[C@H](C(=O)N[C@@H](CCCN=C(N)N)C(=O)N[C@@H](CCCCN)C(=O)N[C@@H](CC(N)=O)C(=O)N[C@@H](Cc1ccccc1)C(=O)N[C@H](C(=O)N1CCC[C@H]1C(=O)N[C@H](C(=O)N[C@@H](CC(=O)O)C(=O)N[C@H](C(=O)NCC(=O)N1CCC[C@H]1C(=O)N[C@@H](Cc1ccccc1)C(=O)N[C@@H](C)C(=O)N[C@@H](Cc1ccccc1)C(N)=O)C(C)C)[C@@H](C)O)C(C)C)C(C)C)C(C)C)[C@@H](C)O)C(C)C [compound 7]
IC50 (CGRP1 receptor; Table 3, unconjugated CGRP peptide analogs, n = 2-4, read-out: IC50): 0.13 nM
% Remaining [3]: 100.0%
remaining at 0.5 h, 100 ng/ml [3]: 55.4%
remaining at 1 h, 100 ng/ml [3]: 34.5%
remaining at 2 h, 100 ng/ml [3]: 8%
remaining at 3 h, 100 ng/ml [3]: 5.2%
remaining at 4 h, 100 ng/ml [3]: 1.4%
remaining at 5 h, 100 ng/ml [3]: 1.7%
remaining at 6 h, 100 ng/ml [3]: 0.6%

Next, values leading:

Ki ([1]; Table 3B): 0.19 nM
Compound: CC(C)C[C@H](NC(=O)CNC(=O)[C@H](C)NC(=O)[C@H](CC(C)C)NC(=O)[C@H](CCCNC(=N)N)NC(=O)[C@H](Cc1c[nH]cn1)NC(=O)[C@@H](NC(=O)[C@@H](NC(=O)[C@@H](N)c1ccccc1)C(C)C)[C@@H](C)O)C(=O)N[C@@H](CC(C)C)C(=O)N[C@@H](CO)C(=O)N[C@@H](CCCNC(=N)N)C(=O)N[C@@H](CO)C(=O)NCC(=O)NCC(=O)N[C@H](C(=O)N[C@H](C(=O)N[C@@H](CCCCN)C(=O)N[C@@H](CC(N)=O)C(=O)N[C@@H](CC(N)=O)C(=O)N[C@@H](Cc1ccccc1)C(=O)N[C@H](C(=O)N1CCC[C@H]1C(=O)N[C@H](C(=O)N[C@@H](CC(=O)O)C(=O)N[C@H](C(=O)NCC(=O)N1CCC[C@H]1C(=O)N[C@@H](Cc1ccccc1)C(=O)N[C@@H](C)C(=O)N[C@@H](Cc1ccccc1)C(N)=O)C(C)C)[C@@H](C)O)C(C)C)C(C)C)C(C)C [compound 703] (H-[Phg]VTHRLAGLLSRSGGVVKNNFVPTDVGPFAF-NH2)

Ki ([1]; Table 3A): 0.53 nM
Compound: CC(=O)N[C@@H](Cc1c[nH]c2ccccc12)C(=O)N[C@H](C(=O)N[C@H](C(=O)N[C@@H](Cc1cnc[nH]1)C(=O)N[C@@H](CCCNC(N)=O)C(=O)N[C@@H](CC(C)C)C(=O)N[C@@H](C)C(=O)NCC(=O)N[C@@H](CC(C)C)C(=O)N[C@@H](CC(C)C)C(=O)N[C@@H](CO)C(=O)N[C@@H](CCCNC(N)=O)C(=O)N[C@@H](CO)C(=O)NCC(=O)NCC(=O)N[C@H](C(=O)N[C@H](C(=O)N[C@@H](CCCCNC(=N)N)C(=O)N[C@@H](CCCCN)C(=O)N[C@@H](CC(N)=O)C(=O)N[C@@H](Cc1ccccc1)C(=O)N[C@H](C(=O)N1CCC[C@H]1C(=O)N[C@H](C(=O)N[C@@H](CC(=O)O)C(=O)N[C@H](C(=O)NCC(=O)N1CCC[C@H]1C(=O)N[C@@H](Cc1ccccc1)C(=O)N[C@@H](C)C(=O)N[C@@H](Cc1ccccc1)C(N)=O)C(C)C)[C@@H](C)O)C(C)C)C(C)C)C(C)C)[C@@H](C)O)C(C)C [compound 739]

time at which about 10% of the starting concentration remains [2]: about 4 hours
half-life at 100 ng/ml [2, 5]: ~60 min
time at which about 10% of the starting concentration remains [3]: about 5 hours
half-life at 100 ng/ml [3, 5]: ~90 min
Compound: Ac-WVTHQLAGLLSQSGGVVRKNFVPTDVGPFAF-NH2 [SEQ ID NO:39]

% Remaining [3]: 100.0%
remaining at 0.5 h, 100 ng/ml [3]: 76.9%
remaining at 1 h, 100 ng/ml [3]: 58.1%
remaining at 2 h, 100 ng/ml [3]: 27.5%
remaining at 3 h, 100 ng/ml [3]: 21.3%
remaining at 4 h, 100 ng/ml [3]: 16.3%
remaining at 5 h, 100 ng/ml [3]: 11%
remaining at 6 h, 100 ng/ml [3]: 7.1%
Compound: CC(=O)N[C@@H](Cc1c[nH]c2ccccc12)C(=O)N[C@H](C(=O)N[C@H](C(=O)N[C@@H](Cc1cnc[nH]1)C(=O)N[C@@H](CCCCNC(=N)N)C(=O)N[C@@H](CC(C)C)C(=O)N[C@@H](C)C(=O)NCC(=O)N[C@@H](CC(C)C)C(=O)N[C@@H](CC(C)C)C(=O)N[C@@H](CO)C(=O)N[C@@H](CCCCNC(=N)N)C(=O)N[C@@H](CO)C(=O)NCC(=O)NCC(=O)N[C@H](C(=O)N[C@H](C(=O)N[C@@H](CCCNC(=N)N)C(=O)N[C@@H](CCCCN)C(=O)N[C@@H](CC(N)=O)C(=O)N[C@@H](Cc1ccccc1)C(=O)N[C@H](C(=O)N1CCC[C@H]1C(=O)N[C@H](C(=O)N[C@@H](CC(=O)O)C(=O)N[C@H](C(=O)NCC(=O)N1CCC[C@H]1C(=O)N[C@@H](Cc1ccccc1)C(=O)N[C@@H](C)C(=O)N[C@@H](Cc1ccccc1)C(N)=O)C(C)C)[C@@H](C)O)C(C)C)C(C)C)C(C)C)[C@@H](C)O)C(C)C [compound 25]

— patent US8168592B2 (Amgen Inc., priority 2005, dated 2012)
